Experimental data taken from ChEMBL document CHEMBL4184118, “Carbazole-containing amides and ureas: Discovery of cryptochrome modulators as antihyperglycemic agents” (Bioorg Med Chem Lett, 2018).
Values after ≈ are worked out from the molar mass of the structure shown.

Assays:
CRY2/PER2 = target: T1, CRY2/PER2 (Homo sapiens, UniProt O15055+Q49AN0); test: Modulation activity at CRY2/PER2 in human U2OS cells harboring per2-dLuc assessed as activation of per2 activity measured every 100 mins for 5 days by luciferase reporter gene assay; format: cell-based
T1 sequence (O15055 whole entry): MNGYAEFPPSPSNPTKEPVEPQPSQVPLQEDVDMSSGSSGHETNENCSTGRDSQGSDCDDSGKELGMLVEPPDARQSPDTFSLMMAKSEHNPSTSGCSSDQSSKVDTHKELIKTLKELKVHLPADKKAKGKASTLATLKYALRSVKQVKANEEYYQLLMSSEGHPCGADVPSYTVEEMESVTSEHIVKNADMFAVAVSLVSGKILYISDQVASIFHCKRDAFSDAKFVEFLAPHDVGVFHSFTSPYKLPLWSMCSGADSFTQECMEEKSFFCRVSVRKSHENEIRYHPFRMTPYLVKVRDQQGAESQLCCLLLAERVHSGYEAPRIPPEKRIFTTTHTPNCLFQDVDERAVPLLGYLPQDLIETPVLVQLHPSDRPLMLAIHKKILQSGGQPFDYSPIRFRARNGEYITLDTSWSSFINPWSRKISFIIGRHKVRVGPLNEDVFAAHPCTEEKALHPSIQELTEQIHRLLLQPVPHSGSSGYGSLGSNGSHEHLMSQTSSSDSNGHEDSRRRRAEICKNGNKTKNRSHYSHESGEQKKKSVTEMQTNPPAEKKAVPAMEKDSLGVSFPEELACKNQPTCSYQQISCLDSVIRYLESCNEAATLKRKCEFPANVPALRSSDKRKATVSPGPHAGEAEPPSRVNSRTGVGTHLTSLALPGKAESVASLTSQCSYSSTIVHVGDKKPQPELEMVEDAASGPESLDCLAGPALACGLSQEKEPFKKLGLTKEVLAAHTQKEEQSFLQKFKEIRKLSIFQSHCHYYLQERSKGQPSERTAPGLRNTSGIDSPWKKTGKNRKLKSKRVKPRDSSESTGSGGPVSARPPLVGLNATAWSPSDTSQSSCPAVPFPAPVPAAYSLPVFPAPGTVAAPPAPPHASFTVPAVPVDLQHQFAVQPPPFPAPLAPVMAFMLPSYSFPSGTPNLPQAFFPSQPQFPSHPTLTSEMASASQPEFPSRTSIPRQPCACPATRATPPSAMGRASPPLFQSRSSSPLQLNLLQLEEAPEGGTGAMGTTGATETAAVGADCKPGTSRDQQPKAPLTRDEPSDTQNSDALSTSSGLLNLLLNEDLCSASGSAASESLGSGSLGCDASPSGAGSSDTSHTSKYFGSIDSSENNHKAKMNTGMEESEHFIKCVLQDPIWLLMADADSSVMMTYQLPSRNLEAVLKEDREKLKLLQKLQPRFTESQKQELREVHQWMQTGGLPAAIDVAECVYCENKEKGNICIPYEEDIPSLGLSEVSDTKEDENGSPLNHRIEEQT
T1 sequence (Q49AN0 whole entry): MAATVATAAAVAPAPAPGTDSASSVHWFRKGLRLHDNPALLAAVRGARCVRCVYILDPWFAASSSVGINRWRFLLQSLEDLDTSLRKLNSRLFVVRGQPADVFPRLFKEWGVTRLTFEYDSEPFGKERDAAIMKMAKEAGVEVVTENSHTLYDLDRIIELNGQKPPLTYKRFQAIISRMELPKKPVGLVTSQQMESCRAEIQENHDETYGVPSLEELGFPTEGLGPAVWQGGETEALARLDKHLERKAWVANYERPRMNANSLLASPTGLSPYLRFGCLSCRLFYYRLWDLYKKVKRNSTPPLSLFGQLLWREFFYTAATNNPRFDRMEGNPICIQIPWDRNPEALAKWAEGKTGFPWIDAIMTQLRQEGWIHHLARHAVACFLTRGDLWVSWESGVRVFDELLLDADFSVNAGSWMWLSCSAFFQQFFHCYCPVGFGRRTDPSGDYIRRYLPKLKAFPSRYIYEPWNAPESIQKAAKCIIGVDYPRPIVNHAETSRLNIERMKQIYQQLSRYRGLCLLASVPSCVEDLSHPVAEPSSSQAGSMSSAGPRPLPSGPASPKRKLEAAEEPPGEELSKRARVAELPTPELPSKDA

[1] = Kinetic solubility in simulated gastric fluid; format: physicochemical; details: read-out: Kinetic_solubility
[2] = MRT in db/db mouse at 30 mg/kg, po qd after 1 to 24 hrs; format: ADME, organism-based; details: in vivo
[3] = Half life in db/db mouse at 30 mg/kg, po qd; format: ADME, organism-based; details: in vivo
[4] = Total Cmax in db/db mouse at 30 mg/kg, po qd after 1 to 24 hrs; format: ADME, organism-based; design: dose 30 mg/kg, route oral; details: in vivo
Mus musculus = test: Unbound Cmax in db/db mouse at 30 mg/kg, po qd after 1 to 24 hrs; format: ADME, organism-based; details: in vivo

Row | SMILES | EC50 (CRY2/PER2) | other results
1 | CC1(C)CCCN(CC(O)Cn2c3ccc(F)cc3c3cc(F)ccc32)C1=O (stereo not drawn) | 463 nM | 
2 | COC1CCN(CC(O)Cn2c3ccc(F)cc3c3cc(F)ccc32)C1=O (stereo not drawn) | 855 nM | 
3 | CC1CCC(=O)N(CC(O)Cn2c3ccc(F)cc3c3cc(F)ccc32)C1 (stereo not drawn) | 224 nM | 
4 | O=C1N(CC(O)Cn2c3ccc(F)cc3c3cc(F)ccc32)CCCN1c1ccccc1 (stereo not drawn) | 171 nM | 
5 | O=C1CCCCN1CC(O)Cn1c2ccc(F)cc2c2cc(F)ccc21 (stereo not drawn) | 192 nM | 
6 | COC1CNC(=O)N(CC(O)Cn2c3ccc(F)cc3c3cc(F)ccc32)C1 (stereo not drawn) | 1120 nM | 
7 | O=C1C2CC2CN1CC(O)Cn1c2ccc(F)cc2c2cc(F)ccc21 (stereo not drawn) | 246 nM | 
8 | CS(=O)(=O)N(Cc1ccco1)CC(O)Cn1c2ccccc2c2ccccc21 (stereo not drawn) | 870 nM | 
9 | O=C1OCCCN1CC(O)Cn1c2ccc(F)cc2c2cc(F)ccc21 (stereo not drawn) | 4980 nM | 
10 | CCN1CCN(CC(O)Cn2c3ccc(F)cc3c3cc(F)ccc32)C1=O (stereo not drawn) | 1060 nM | 
11 | O=C1CC2CC2CN1CC(O)Cn1c2ccc(F)cc2c2cc(F)ccc21 (stereo not drawn) | 149 nM | 
12 | O=C1C(F)CCN1CC(O)Cn1c2ccc(F)cc2c2cc(F)ccc21 (stereo not drawn) |  | solubility kinetic [1]: 184 µM (≈ 66.7 µg/mL); MRT [2]: 3.27 h; half-life [3]: 2.97 h; Cmax [4]: 1010 nM; fCmax (Mus musculus): 0.03 µM
13 | CC1CCCC(=O)N1CC(O)Cn1c2ccc(F)cc2c2cc(F)ccc21 (stereo not drawn) | 541 nM | 
14 | CC1CCCN(CC(O)Cn2c3ccc(F)cc3c3cc(F)ccc32)C1=O (stereo not drawn) | 1150 nM | 
15 | O=C1N(CC(O)Cn2c3ccc(F)cc3c3cc(F)ccc32)CCC1(F)F (stereo not drawn) | 716 nM | 
16 | O=C1C(c2ccccc2)CCCN1CC(O)Cn1c2ccc(F)cc2c2cc(F)ccc21 (stereo not drawn) | 547 nM | 
17 | O=C1CCc2ccccc2N1CC(O)Cn1c2ccc(F)cc2c2cc(F)ccc21 (stereo not drawn) | 7430 nM | 
18 | CC1CN(CC(O)Cn2c3ccc(F)cc3c3cc(F)ccc32)C(=O)N1 (stereo not drawn) | 667 nM | solubility kinetic [1]: 181 µM (≈ 64.9 µg/mL); MRT [2]: 4.16 h; half-life [3]: 2.58 h; Cmax [4]: 557 nM; fCmax (Mus musculus): 0.01 µM
19 | CC1CC(=O)N(CC(O)Cn2c3ccc(F)cc3c3cc(F)ccc32)C1 (stereo not drawn) | 1030 nM | 
20 | CN1CCCN(CC(O)Cn2c3ccc(F)cc3c3cc(F)ccc32)C1=O (stereo not drawn) | 719 nM | solubility kinetic [1]: 162 µM (≈ 60.4 µg/mL); MRT [2]: 3.51 h; half-life [3]: 2.57 h; Cmax [4]: 63 nM; fCmax (Mus musculus): 0.002 µM
21 | O=C1C(c2ccccc2)CCN1CC(O)Cn1c2ccc(F)cc2c2cc(F)ccc21 (stereo not drawn) | 487 nM | 
22 | CC1CNC(=O)N1CC(O)Cn1c2ccc(F)cc2c2cc(F)ccc21 (stereo not drawn) | 1190 nM | 
23 | CC1(C)CCN(CC(O)Cn2c3ccc(F)cc3c3cc(F)ccc32)C1=O (stereo not drawn) | 164 nM | 
24 | O=C1Cc2ccccc2CN1CC(O)Cn1c2ccc(F)cc2c2cc(F)ccc21 (stereo not drawn) | 15200 nM | 
25 | CC(C)N1CCCN(CC(O)Cn2c3ccc(F)cc3c3cc(F)ccc32)C1=O (stereo not drawn) | 620 nM | 
26 | COC1CCCN(CC(O)Cn2c3ccc(F)cc3c3cc(F)ccc32)C1=O (stereo not drawn) | 330 nM | solubility kinetic [1]: 188 µM (≈ 72.9 µg/mL); MRT [2]: 2.68 h; half-life [3]: 2.16 h; Cmax [4]: 235 nM; fCmax (Mus musculus): 0.007 µM
27 | O=C1N(CC(O)Cn2c3ccc(F)cc3c3cc(F)ccc32)CCN1c1ccccc1 (stereo not drawn) | 528 nM | 

Row | SMILES | EC50 (CRY2/PER2) | other results
28 | CC(C)C1CCN(CC(O)Cn2c3ccc(F)cc3c3cc(F)ccc32)C1=O (stereo not drawn) | 261 nM | 
29 | CN1CCN(CC(O)Cn2c3ccc(F)cc3c3cc(F)ccc32)C1=O (stereo not drawn) | 406 nM | 
30 | CC(C)N1CCN(CC(O)Cn2c3ccc(F)cc3c3cc(F)ccc32)C1=O (stereo not drawn) | 605 nM | 
31 | O=C1C2CCC(C2)N1CC(O)Cn1c2ccc(F)cc2c2cc(F)ccc21 (stereo not drawn) | 163 nM | solubility kinetic [1]: 168 µM (≈ 62.2 µg/mL); MRT [2]: 2.92 h; half-life [3]: 2.14 h; Cmax [4]: 551 nM; fCmax (Mus musculus): 0.01 µM
32 | CC1CCC(=O)N1CC(O)Cn1c2ccc(F)cc2c2cc(F)ccc21 (stereo not drawn) | 199 nM | 
33 | O=C1COCCN1CC(O)Cn1c2ccc(F)cc2c2cc(F)ccc21 (stereo not drawn) | 447 nM | 
34 | O=C1OCCN1CC(O)Cn1c2ccc(F)cc2c2cc(F)ccc21 (stereo not drawn) | 9770 nM | 
35 | CC1CCN(CC(O)Cn2c3ccc(F)cc3c3cc(F)ccc32)C1=O (stereo not drawn) | 424 nM | 
36 | CC1CCN(CC(O)Cn2c3ccc(F)cc3c3cc(F)ccc32)C(=O)N1 (stereo not drawn) | 417 nM | 
37 | CC(C)C1CCCN(CC(O)Cn2c3ccc(F)cc3c3cc(F)ccc32)C1=O (stereo not drawn) | 79 nM | 
38 | O=C1N(CC(O)Cn2c3ccc(F)cc3c3cc(F)ccc32)CCCC1(F)F (stereo not drawn) | 194 nM | 
39 | COC1CCC(=O)N(CC(O)Cn2c3ccc(F)cc3c3cc(F)ccc32)C1 (stereo not drawn) | 397 nM | 
40 | CCN1CCCN(CC(O)Cn2c3ccc(F)cc3c3cc(F)ccc32)C1=O (stereo not drawn) | 497 nM | 
41 | O=C1C2CC2CCN1CC(O)Cn1c2ccc(F)cc2c2cc(F)ccc21 (stereo not drawn) | 167 nM | 
42 | O=C1NCCCN1CC(O)Cn1c2ccc(F)cc2c2cc(F)ccc21 (stereo not drawn) | 188 nM | solubility kinetic [1]: 85.6 µM (≈ 30.8 µg/mL); MRT [2]: 2.98 h; half-life [3]: 2.39 h; Cmax [4]: 1020 nM; fCmax (Mus musculus): 0.045 µM
43 | O=C1CCC2CC2N1CC(O)Cn1c2ccc(F)cc2c2cc(F)ccc21 (stereo not drawn) | 565 nM | 
44 | O=C1c2ccccc2CN1CC(O)Cn1c2ccc(F)cc2c2cc(F)ccc21 (stereo not drawn) | 1490 nM | 
45 | COC1CC(=O)N(CC(O)Cn2c3ccc(F)cc3c3cc(F)ccc32)C1 (stereo not drawn) | 1140 nM | 
46 | O=C1C(F)CCCN1CC(O)Cn1c2ccc(F)cc2c2cc(F)ccc21 (stereo not drawn) | 79 nM | 
47 | CCC1CCCN(CC(O)Cn2c3ccc(F)cc3c3cc(F)ccc32)C1=O (stereo not drawn) | 332 nM | 
48 | O=C1c2ccccc2CCN1CC(O)Cn1c2ccc(F)cc2c2cc(F)ccc21 (stereo not drawn) | 1360 nM | 
49 | CC1CNC(=O)N(CC(O)Cn2c3ccc(F)cc3c3cc(F)ccc32)C1 (stereo not drawn) | 833 nM | 
50 | CC1CCN(CC(O)Cn2c3ccc(F)cc3c3cc(F)ccc32)C(=O)C1 (stereo not drawn) | 128 nM | 
51 | CCC1CCN(CC(O)Cn2c3ccc(F)cc3c3cc(F)ccc32)C1=O (stereo not drawn) | 417 nM | 
52 | CC1CCNC(=O)N1CC(O)Cn1c2ccc(F)cc2c2cc(F)ccc21 (stereo not drawn) | 742 nM | 
53 | O=C1CCCN1CC(O)Cn1c2ccc(F)cc2c2cc(F)ccc21 (stereo not drawn) | 625 nM | solubility kinetic [1]: 148 µM (≈ 51.1 µg/mL); MRT [2]: 3.32 h; half-life [3]: 2.95 h; Cmax [4]: 415 nM; fCmax (Mus musculus): 0.011 µM
54 | O=C1Cc2ccccc2N1CC(O)Cn1c2ccc(F)cc2c2cc(F)ccc21 (stereo not drawn) | 3730 nM | 
